Source: patent US11708348B2, “Protease inhibitors for treatment of coronavirus infections” (The Scripps Research Institute, priority 2021, dated 2023)

test system: SARS-CoV-2 strain USA-WA1/2020; assay: microbe, parasite or virus in culture; type: cell-based; details: Severe acute respiratory syndrome coronavirus 2, HeLa-ACE2, 24 h, HeLa-ACE2 cells, SARS-CoV-2 infection, 24 h; bound printed in cell; read-out: EC50, uM (Hela)

Q: How did the EC50 turn out when `O=C1NCC[C@H]1C[C@H](NC(=O)[C@@H]1C[C@H]2C[C@H]2N1C(=O)[C@H]1CCCO1)C(=O)COC(F)(F)F` [Compound 303, (1R,3S,5R)-N-((S)-3-oxo-1-((S)-2-oxopyrrolidin-3-yl)-4-(trifluoromethoxy)butan-2-yl)-2-((R)-tetrahydrofuran-2-carbonyl)-2-azabicyclo[3.1.0]-hexane-3-carboxamide] was run?
A: Its EC50 is greater than 1 µM.

Q: How did the EC50 turn out when `CC(C)C[C@H](NC(=O)[C@H](CCCCN)NC(=O)c1ccccc1F)C(=O)N[C@@H](C[C@@H]1CCNC1=O)C(=O)COC(F)(F)F` [Compound 208, N-((S)-6-amino-1-(((S)-4-methyl-1-oxo-1-(((S)-3-oxo-1-((S)-2-oxopyrrolidin-3-yl)-4-(trifluoromethoxy)butan-2-yl)amino)pentan-2-yl)amino)-1-oxohexan-2-yl)-2-fluorobenzamide] was run?
A: Its EC50 is greater than 1 µM.

Q: How did the EC50 turn out when `O=C(Nc1ccccc1F)C(=O)NC1(C(=O)N[C@@H](C[C@@H]2CCNC2=O)C(=O)COC(F)(F)F)CCOCC1` [Compound 257, N1-(2-fluorophenyl)-N2-(4-(((S)-3-oxo-1-((S)-2-oxopyrrolidin-3-yl)-4-(trifluoromethoxy)butan-2-yl)carbamoyl)-tetrahydro-2H-pyran-4-yl)oxalamide] was run?
A: The EC50 was greater than 1 µM.

same assay, conditions: Severe acute respiratory syndrome coronavirus 2, HeLa-ACE2, 24 h, HeLa-ACE2 cells, SARS-CoV-2 infection, 24 h; class symbols; read-out: EC50, uM (Hela)

Q: For `CC(C)C[C@@H](OC(=O)NC1CCCCC1)C(=O)N1CC2(CC2)C[C@H]1C(=O)N[C@@H](C[C@@H]1CCNC1=O)C(=O)COC(F)(F)F` [Compound 330, (R)-4-methyl-1-oxo-1-((S)-6-(((S)-3-oxo-l-((S)-2-oxopyrrolidin-3-yl)-4-(trifluoromethoxy)butan-2-yl)carbamoyl)-5-azaspiro[2.4]heptan-5-yl)pentan-2-yl cyclohexylcarbamate], which EC50 is on record?
A: Its EC50 is less than 0.05 µM.

Q: How did the EC50 turn out when `O=C(N[C@@H](Cc1ccc(C(F)(F)F)cc1)C(=O)N[C@@H](C[C@@H]1CCNC1=O)C(=O)COc1c(F)c(F)cc(F)c1F)c1cc2cc(F)ccc2[nH]1` [Compound 17, 5-fluoro-N-((S)-1-oxo-1-(((S)-3-oxo-1-((S)-2-oxopyrrolidin-3-yl)-4-(2,3,5,6-tetrafluorophenoxy)butan-2-yl)amino)-3-(4-(tri-fluoromethyl)phenyl)-propan-2-yl)-1H-indole-2-carboxamide] was run?
A: Its EC50 is 0.2 to 0.5 µM.

Q: How did the EC50 turn out when `CC(C)C[C@H](NC(=O)C(=O)Nc1ccccc1F)c1cn([C@@H](C[C@@H]2CCNC2=O)C(=O)COc2c(F)c(F)cc(F)c2F)nn1` [Compound 197, N1-(2-fluorophenyl)-N2-((S)-3-methyl-1-(1-((S)-3-oxo-1-((S)-2-oxopyrrolidin-3-yl)-4-(2,3,5,6-tetrafluorophenoxy)butan-2-yl)-1H-1,2,3-triazol-4-yl)butyl)oxalamide] was run?
A: The EC50 was 0.5 to 1 µM.

Q: Which EC50 does the source give for `Cc1ccc(F)cc1NC(=O)C(=O)N[C@@H](CC(C)C)C(=O)N[C@@H](C[C@@H]1CCNC1=O)C(=O)COc1c(F)c(F)cc(F)c1F` [Compound 83, Nl-(5-fluoro-2-methylphenyl)-N2-((S)-4-methyl-1-oxo-1-(((S)-3-oxo-1-((S)-2-oxopyrrolidin-3-yl)-4-(2,3,5,6-tetrafluorophenoxy)butan-2-yl)amino)pentan-2-yl)oxalamide] here?
A: The EC50 was less than 0.05 µM.

Q: How did the EC50 turn out when `CC(C)(C)[C@H](NC(=O)[C@H]1CCCO1)C(=O)N1C[C@H]2[C@@H]([C@H]1C(=O)N[C@@H](C[C@@H]1CCNC1=O)C(=O)COC(F)(F)F)C2(C)C` [Compound 290, (1R,2S,5S)-3-((S)-3,3-dimethyl-2-((R)-tetrahydrofuran-2-carboxamido)-butanoyl)-6,6-dimethyl-N-((S)-3-oxo-1-((S)-2-oxopyrrolidin-3-yl)-4-(trifluoromethoxy)butan-2-yl)-3-azabicyclo-[3.1.0]hexane-2-carboxamide] was run?
A: Its EC50 is 0.2 to 0.5 µM.

Q: Which EC50 does the source give for `CC(C)C[C@H](NC(=O)C12CC(C)(CO1)C2)C(=O)N[C@@H](C[C@@H]1CCNC1=O)C(=O)COC(F)(F)F` [Compound 313, 4-methyl-N-((S)-4-methyl-1-oxo-1-(((S)-3-oxo-1-((S)-2-oxopyrrolidin-3-yl)-4-(trifluoromethoxy)butan-2-yl)amino)pentan-2-yl)-2-oxabicyclo-[2.1.1]hexane-1-carboxamide] here?
A: The EC50 was 0.05 to 0.2 µM.

Q: How did the EC50 turn out when `O=C(NCC(F)(F)F)C(=O)NC(CC1CCOCC1)C(=O)N[C@@H](C[C@@H]1CCNC1=O)C(=O)COC(F)(F)F` (stereo partly drawn) [Compound 267, N1-(1-oxo-1-(((S)-3-oxo-1-((S)-2-oxopyrrolidin-3-yl)-4-(trifluoromethoxy)butan-2-yl)amino)-3-(tetrahydro-2H-pyran-4-yl)propan-2-yl)-N2-(2,2,2-trifluoroethyl)-oxalamide] was run?
A: The EC50 was 0.5 to 1 µM.

Q: How did the EC50 turn out when `CC(C)C[C@H](NC(=O)c1ccc2ccccc2n1)C(=O)N[C@@H](C[C@@H]1CCNC1=O)C(=O)COc1c(F)c(F)cc(F)c1F` [Compound 20, N-((S)-4-methyl-1-oxo-1-(((S)-3-oxo-1-((S)-2-oxopyrrolidin-3-yl)-4-(2,3,5,6-tetrafluorophenoxy)butan-2-yl)amino)pentan-2-yl)quinoline-2-carboxamide] was run?
A: Its EC50 is 0.2 to 0.5 µM.

Q: For `CC(C)C[C@H](NC(=O)c1cc(-c2ccccc2)on1)C(=O)N[C@@H](C[C@@H]1CCNC1=O)C(=O)COc1c(F)c(F)cc(F)c1F` [Compound 70, N-((S)-4-methyl-1-oxo-1-(((S)-3-oxo-1-((S)-2-oxopyrrolidin-3-yl)-4-(2,3,5,6-tetrafluoro-phenoxy)butan-2-yl)amino)pentan-2-yl)-5-phenylisoxazole-3-carboxamide], which EC50 is on record?
A: The EC50 was 0.2 to 0.5 µM.

Q: Which EC50 does the source give for `CC(C)C[C@H](NC(=O)C(=O)Nc1ccccc1C(C)C)C(=O)N[C@@H](C[C@@H]1CCNC1=O)C(=O)COc1c(F)c(F)cc(F)c1F` [Compound 86, Nl-(2-isopropylphenyl)-N2-((S)-4-methyl-1-oxo-1-(((S)-3-oxo-1-((S)-2-oxopyrrolidin-3-yl)-4-(2,3,5,6-tetrafluorophenoxy)butan-2-yl)amino)pentan-2-yl)oxalamide] here?
A: The EC50 was less than 0.05 µM.

same assay, conditions: Severe acute respiratory syndrome coronavirus 2, HeLa-ACE2, 24 h, HeLa-ACE2 cells, SARS-CoV-2 infection, 24 h; given as bound; read-out: EC50, uM (Hela)

Q: `C[C@@]12C[C@@H](C(=O)N[C@@H](C[C@@H]3CCNC3=O)C(=O)COC(F)(F)F)N(C(=O)C(=O)Nc3ccccc3F)[C@@H]1C2` [Compound 581, (1R, 3S, 5R)-2-(2-((2-fluorophenyl)amino)-2-oxoacetyl)-5-methyl-N-((S)-3-oxo-1-((S)-2-oxopyrrolidin-3-yl)-4-(trifluoromethoxy)butan-2-yl)-2-azabicyclo-[3.1.0]hexane-3-carboxamide] was tested. Which EC50 did it give?
A: Its EC50 is greater than 1 µM.

same assay, conditions: Severe acute respiratory syndrome coronavirus 2, HeLa-ACE2, 24 h, HeLa-ACE2 cells, SARS-CoV-2 infection, 24 h; read-out: EC50, uM (Hela)

Q: How did the EC50 turn out when `CC(C)C[C@H](NC(=O)C(=O)Nc1ccccc1F)C(=O)N[C@@H](CCS(C)(=O)=O)C(=O)COc1c(F)c(F)cc(F)c1F` [Compound 655, N1-(2-fluorophenyl)-N2-((S)-4-methyl-1-(((S)-5-(methylsulfonyl)-2-oxo-1-(2,3,5,6-tetrafluorophenoxy)pentan-3-yl)amino)-1-oxopentan-2-yl)oxalamide] was run?
A: Its EC50 is 0.5 to 1 µM.

Q: Which EC50 does the source give for `O=C(NCC(F)(F)F)C(=O)N[C@@H](CC1CC1)C(=O)N[C@@H](C[C@@H]1CCNC1=O)C(=O)COC(F)(F)F` [Compound 517, N1-((S)-3-cyclopropyl-1-oxo-1-(((S)-3-oxo-1-((S)-2-oxopyrrolidin-3-yl)-4-(trifluoromethoxy)butan-2-yl)amino)propan-2-yl)-N2-(2,2,2-trifluoroethyl)oxalamide] here?
A: The EC50 was less than 0.05 µM.

Q: Which EC50 does the source give for `CC(C)(NC(=O)C(=O)N1Cc2ccccc2C[C@H]1C(=O)N[C@@H](C[C@@H]1CCNC1=O)C(=O)COC(F)(F)F)C(F)(F)F` [Compound 472, (S)-N-((S)-3-oxo-1-((S)-2-oxopyrrolidin-3-yl)-4-(trifluoromethoxy)butan-2-yl)-2-(2-oxo-2-((1,1,1-trifluoro-2-methylpropan-2-yl)amino)acetyl)-1,2,3,4-tetrahydro-isoquinoline-3-carboxamide] here?
A: Its EC50 is 0.05 to 0.2 µM.

Q: How did the EC50 turn out when `O=C1NCC[C@H]1C[C@H](NC(=O)[C@@H]1CC2(CC2)CN1C(=O)Cc1ccccc1)C(=O)COC(F)(F)F` [Compound 648, (S)-N-((S)-3-oxo-1-((S)-2-oxopyrrolidin-3-yl)-4-(trifluoromethoxy)butan-2-yl)-5-(2-phenylacetyl)-5-azaspiro[2.4]heptane-6-carboxamide] was run?
A: Its EC50 is less than 0.05 µM.

Q: With `CC(C)(C)C[C@H](NC(=O)C(=O)NCC(F)(F)F)C(=O)N[C@@H](C[C@@H]1CCNC1=O)C(=O)COC(F)(F)F` [Compound 505, N1-((S)-4,4-dimethyl-1-oxo-1-(((S)-3-oxo-1-((S)-2-oxopyrrolidin-3-yl)-4-(trifluoromethoxy)butan-2-yl)amino)pentan-2-yl)-N2-(2,2,2-trifluoroethyl)-oxalamide] as the compound, how does the EC50 read?
A: Its EC50 is less than 0.05 µM.

Q: `CC(C)C[C@H](Nc1cc2ccccc2[nH]c1=O)C(=O)N[C@@H](C[C@@H]1CCNC1=O)C(=O)COC(F)(F)F` [Compound 465, (S)-4-methyl-2-((2-oxo-1,2-dihydroquinolin-3-yl)amino)-N-((S)-3-oxo-1-((S)-2-oxopyrrolidin-3-yl)-4-(trifluoromethoxy)butan-2-yl)pentanamide] was tested. Which EC50 did it give?
A: The EC50 was 0.2 to 0.5 µM.

Q: How did the EC50 turn out when `O=C1NCC[C@H]1C[C@H](NC(=O)[C@@H]1CC2(CC2)CN1C(=O)C1(O)CCC1)C(=O)COC(F)(F)F` [Compound 422, (S)-5-(1-hydroxycyclobutane-1-carbonyl)-N-((S)-3-oxo-1-((S)-2-oxo-pyrrolidin-3-yl)-4-(trifluoromethoxy)butan-2-yl)-5-azaspiro[2.4]heptane-6-carboxamide] was run?
A: The EC50 was 0.05 to 0.2 µM.

Q: `CC(C)(F)CCC(=O)N1CC2(CC2)C[C@H]1C(=O)N[C@@H](C[C@@H]1CCNC1=O)C(=O)COC(F)(F)F` [Compound 624, (S)-5-(4-fluoro-4-methylpentanoyl)-N-((S)-3-oxo-1-((S)-2-oxopyrrolidin-3-yl)-4-(trifluoromethoxy)butan-2-yl)-5-azaspiro[2.4]heptane-6-carboxamide] was tested. Which EC50 did it give?
A: Its EC50 is 0.05 to 0.2 µM.

Q: Which EC50 does the source give for `O=C1NCC[C@H]1C[C@H](NC(=O)[C@@H]1[C@H]2CCC[C@H]2CN1C(=O)c1noc2cc(Cl)ccc12)C(=O)COC(F)(F)F` [Compound 783, (1S,3aR,6aS)-2-(6-chlorobenzo[d]isoxazole-3-carbonyl)-N-((S)-3-oxo-1-((S)-2-oxopyrrolidin-3-yl)-4-(trifluoromethoxy)butan-2-yl)octahydrocyclopenta[c]pyrrole-1-carboxamide] here?
A: Its EC50 is less than 0.05 µM.
